Key:
OAT3 = tested on: T1, OAT3; experiment: Substrate specificity / uptake in HEK293-OAT3 cells; assay type: in vitro ADME; conditions: 5 min
T1 construct: host or cells: HEK293
Description: (§1) HEK293-mock cells and HEK293 cells overexpressing OAT1 and OAT3 transporters (HEK293-OAT1 and -OAT3, respectively) were seeded in poly-D-lysine-coated 24-well plates at a density of 4 × 10^5 cells/well and cultured for 24 h in DMEM supplemented with 10% FBS and 5 mM non-essential amino acids at 37 °C in 8% CO2 condition.
(§2) For each experiment, the growth medium was discarded after 24 h, and the attached cells were washed with pre-warmed HBSS and incubated with pre-warmed HBSS for 20 min at 37 °C. To confirm the functionality of OAT1 and OAT3, we measured the uptake of 0.1 µM [^3H]PAH and 0.1 µM [^3H]ES, representative substrates for OAT1 and OAT3, respectively, into in the HEK293-mock cells and HEK293-OAT1 and -OAT3 cells, respectively, for 5 min in the presence and absence of 20 µM probenecid, a typical inhibitor for both OAT1 and OAT3 [8, 9]. The cells were then washed three times with 500 μL of ice-cold HBSS immediately after placing the plates on ice. Subsequently, cells were lysed with 10% sodium dodecyl sulfate and mixed with Optiphase cocktail solution overnight. The radioactivity of the cell lysate was measured using a liquid scintillation counter (Microbeta 2; Perkin Elmer Inc., Boston, MA, USA).
(§3) For the concentration dependency in the uptake of DWP16001, the uptake of DWP16001 in a concentration range of 0.5–50 μM dissolved in HBSS was measured for 5 min at 37 °C in the mock cells and HEK293-OAT1 and -OAT3 cells, respectively. After 5 min, the cells were washed three times with 500 μL of ice-cold HBSS immediately after placing the plates on ice.
(§4) In the concentration-dependent uptake studies, the transporter-mediated uptake of DWP16001 was calculated by the subtraction of the transport rates of DWP16001 into the mock cells from those of the HEK293-OAT1 and -OAT3 cells. Kinetic parameters for the OAT1- and OAT3-mediated transport of DWP16001 were determined using the Michaelis-Menten equation [V = Vmax⋅S/(Km + S)] [10].

SGLT2 [1] = target: T2, SGLT2 (Homo sapiens, UniProt P31639); experiment: Recovery of SGLT2 activity after washout following 24 h exposure in CHO-SGLT2 cells; assay type: cell-based; conditions: 0.2–200 nM
T2 construct: host or cells: CHO
T2 sequence (P31639 1-672): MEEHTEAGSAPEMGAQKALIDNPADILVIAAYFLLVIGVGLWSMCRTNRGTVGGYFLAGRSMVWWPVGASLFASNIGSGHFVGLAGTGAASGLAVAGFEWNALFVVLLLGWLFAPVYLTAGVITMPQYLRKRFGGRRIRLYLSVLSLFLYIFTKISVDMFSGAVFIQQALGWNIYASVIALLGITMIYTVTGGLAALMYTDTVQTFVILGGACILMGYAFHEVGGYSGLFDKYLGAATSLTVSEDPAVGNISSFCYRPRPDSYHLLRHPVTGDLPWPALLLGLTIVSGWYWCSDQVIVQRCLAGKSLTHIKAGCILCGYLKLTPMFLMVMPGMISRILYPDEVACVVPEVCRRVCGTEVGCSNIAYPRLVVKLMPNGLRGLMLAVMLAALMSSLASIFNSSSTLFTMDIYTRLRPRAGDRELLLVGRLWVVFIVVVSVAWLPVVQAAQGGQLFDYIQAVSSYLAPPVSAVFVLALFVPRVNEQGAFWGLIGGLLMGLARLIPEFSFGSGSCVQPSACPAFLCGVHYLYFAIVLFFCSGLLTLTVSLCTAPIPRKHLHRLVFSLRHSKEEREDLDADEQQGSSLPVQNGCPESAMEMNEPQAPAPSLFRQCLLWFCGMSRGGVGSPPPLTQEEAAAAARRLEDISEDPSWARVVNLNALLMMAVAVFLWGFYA
Description: After 24 h, the RPMI1640 medium was replaced with pre-warmed fresh RPMI1640 medium and incubated for 1, 2, 3, 5, and 6 h, and proceeded another pre-incubation with Na^+-free buffer for 1 h. Then, after replacing Na^+-free buffer with Na^+ gradient buffer containing 10 µM [^14C]AMG, the uptake of [^14C]AMG into the CHO-SGLT2 cells was measured for 2 h. After 2 h of incubation, the radioactivity of the cell lysate was measured following the same sample preparation method described above.

OAT1 = tested on: T3, OAT1; experiment: Substrate specificity / uptake in HEK293-OAT1 cells; assay type: in vitro ADME; conditions: 5 min
T3 construct: host or cells: HEK293
Description: as §1, §2, §3, §4

in vivo = conditions: ICR, mouse, po, 1 mg/kg
Description: (§5) An aliquot (30 µL) of each plasma sample was stored at −80 °C until the analysis. […] An aliquot (50 µL) of each kidney homogenate sample was stored at −80 °C until the analysis.
(§6) For the analysis of SGLT2 inhibitors, aliquots of plasma (30 µL) and kidney homogenate (50 µL) were added to 100 μL of aqueous solution of D4-DWP16001 (IS, 20 ng/mL), and vigorously mixed with 500 μL methyl tert-butyl ether (MTBE) for 15 min. After centrifugation at 16,000 g for 5 min, samples were kept for 1 h at −80 °C to make an aqueous layer freeze. An organic upper layer was transferred to a clean tube and evaporated to dryness under a gentle stream of nitrogen. Then, the dried extract was reconstituted in 150 µL of mobile phase, and a 3 µL aliquot of the reconstituent was injected into a liquid chromatography–tandem mass spectrometry (LC–MS/MS) system.
(§7) Pharmacokinetic parameters, such as the area under plasma concentration-time curve from zero to infinity (AUC), were calculated from plasma concentration vs time curves using non-compartment analysis with WinNonlin (version 5.1; Pharsights, Cary, NC, USA). The AUC ratios (i.e., ratios of kidney AUC to plasma AUC) were calculated by dividing the AUC of the three SGLT2 inhibitors in the kidney by the plasma AUC values of the three SGLT2 inhibitors.

[2] = set-up: method as in PMID 27430987; conditions: cited from earlier work
SGLT2 [3] = target: T2, SGLT2; experiment: Mode of inhibition on SGLT2 (Dixon plots) in CHO-SGLT2 cells; assay type: cell-based; conditions: 1, 2.5, 5, 50 μM [14C]AMG
Description: The radioactivity of the cell lysate was measured following the same sample preparation method described above.

[4] = mouse, in vivo, po, 1 mg/kg
Description: as §5, §6, §7

SGLT2 [5] = target: T2, SGLT2; experiment: Time dependency of SGLT2 inhibition (preincubation) in CHO-SGLT2 cells; assay type: cell-based; conditions: pretreatment 0, 1, 2 h
Description: After 2 h of incubation, the radioactivity of the cell lysate was measured following the same sample preparation method described above.

SGLT1 = target: T4, SGLT1 (Homo sapiens, UniProt P13866); experiment: Inhibition of [14C]AMG uptake in CHO-SGLT1 cells; assay type: cell-based; conditions: 10 μM [14C]AMG, 2 h
T4 construct: host or cells: CHO
T4 sequence (P13866 1-664): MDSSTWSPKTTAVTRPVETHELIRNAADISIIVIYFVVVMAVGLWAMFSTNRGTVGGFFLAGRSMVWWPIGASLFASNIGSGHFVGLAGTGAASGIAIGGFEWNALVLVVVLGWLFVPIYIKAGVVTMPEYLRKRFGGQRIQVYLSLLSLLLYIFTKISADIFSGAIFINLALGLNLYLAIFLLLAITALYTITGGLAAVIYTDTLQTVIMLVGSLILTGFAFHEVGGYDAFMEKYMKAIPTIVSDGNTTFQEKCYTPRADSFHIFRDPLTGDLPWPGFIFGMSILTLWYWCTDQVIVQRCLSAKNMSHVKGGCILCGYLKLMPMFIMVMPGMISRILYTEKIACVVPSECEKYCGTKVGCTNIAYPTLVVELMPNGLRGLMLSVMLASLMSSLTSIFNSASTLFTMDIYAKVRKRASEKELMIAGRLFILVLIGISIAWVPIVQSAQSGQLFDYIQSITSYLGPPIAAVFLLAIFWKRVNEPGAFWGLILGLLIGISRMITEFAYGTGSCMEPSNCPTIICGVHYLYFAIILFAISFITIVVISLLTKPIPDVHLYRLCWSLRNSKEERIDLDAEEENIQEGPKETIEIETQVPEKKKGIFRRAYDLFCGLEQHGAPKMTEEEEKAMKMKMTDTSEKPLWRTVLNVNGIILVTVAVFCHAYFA
Description: CHO cells overexpressing SGLT1 and SGLT2 cells (CHO-SGLT1 and -SGLT2) and CHO-mock cells were characterized as previously described. Cells were maintained in RPMI1640 medium supplemented with 10% fetal bovine serum and 200 µg/mL G418 at 37 °C in 5% CO2 conditions. CHO-SGLT1 and -SGLT2 cells were seeded at a density of 1 × 10^5 cells/well in 96-well plates. After 24 h, the growth medium was discarded from the cells, and the cells were washed with pre-warmed Na^+-free buffer (10 mM HEPES, 5 mM Tris, 140 mM choline chloride, 2 mM KCl, 1 mM CaCl2, 1 mM MgCl2, pH7.4) and incubated for 1 h in Na^+-free buffer. After replacing Na^+-free buffer with Na^+ gradient buffer (10 mM HEPES, 5 mM Tris, 140 mM NaCl, 2 mM KCl, 1 mM CaCl2, 1 mM MgCl2, pH7.4) containing 10 µM [^14C]AMG, the uptake of [^14C]AMG into the CHO-mock cells and CHO-SGLT1 and -SLGT2 cells was measured for 0.5, 1, 1.5, 2, and 3 h. After a predetermined incubation time, cells were washed three times with 200 µL of ice-cold Na^+-free buffer immediately after placing the plates on ice. Then, the cells were lysed with 10% SDS, and the cell lysates were mixed with Optiphase cocktail solution. Thereafter, the radioactivity of the cell lysates was measured using a liquid scintillation counter.
After 2 h, cells were washed three times with 200 µL of ice-cold Na^+-free buffer and the cells were lysed with 10% SDS (40 µL), followed by adding Optiphase cocktail solution (200 µL). The radioactivity of the cell lysates was measured using a liquid scintillation counter. The SGLT1 or SGLT2-mediated uptake of [^14C]AMG was calculated by the subtraction of the uptake rates of [^14C]AMG into the mock cells from those of the CHO-SGLT1 and -SLGT2 cells. In the inhibition studies, the percentages of the transport rate of AMG with or without SGLT2 inhibitors were calculated and the data were fitted to an inhibitory effect model. The IC50 (the concentration of the inhibitor to show half-maximal inhibition) values were calculated using Sigma Plot ver.10.0 (Systat Software, Inc.; San Jose, CA, USA).

C[C@]12CC[C@@H]3c4ccc(OS(=O)(=O)O)cc4CC[C@H]3[C@@H]1CCC2=O [ES, Estrone-3-sulfate]
Increase in probe substrate uptake in HEK293-OAT3 vs HEK293-mock cells (OAT3; 0.1 μM [3H]ES): 16.4 fold

CCOc1ccc(Cc2cc([C@@H]3O[C@H](CO)[C@@H](O)[C@H](O)[C@H]3O)ccc2Cl)cc1 [Dapagliflozin, dapagliflozin]
Time after drug removal to recovery of SGLT2 activity to the control level (SGLT2 [1]): 4 h | Substrate for OAT3 (OAT3; 2 μM, HEK293-OAT3 vs mock, ± 20 μM probenecid): not substrates | Substrate for OAT1 (OAT1; 2 μM, HEK293-OAT1 vs mock, ± 20 μM probenecid): not substrates | AUC(0-inf) (in vivo): 550 ± 144000 ng·h/mL | AUC(0-t) (in vivo): 480 ± 180 ng·h/mL | Cmax (in vivo): 275 ± 144 ng/mL | Kp (in vivo): 64.6 ± 31.8 | Duration of increased urinary glucose excretion post dose [2]: ≥ 18 h | logP (physchem): 2.27 | Mode of inhibition on SGLT2 (SGLT2 [3]): reversible and competitive | AUC72h [4]: 26.30 ± 3.34 μg∙h/g tissue | Time dependency of SGLT2 inhibition (SGLT2 [5]): time-independent

CO[C@H]1O[C@H](CO)[C@@H](O)[C@H](O)[C@H]1O [AMG, methyl a-D-glucopyranoside]
AMG uptake into CHO-SGLT1 cells relative to CHO-mock cells (SGLT1): 42 fold

Nc1ccc(C(=O)NCC(=O)O)cc1 [PAH, Para-aminohipuric acid]
Increase in probe substrate uptake in HEK293-OAT1 vs HEK293-mock cells (OAT1; 0.1 μM [3H]PAH): 14.7 fold

Source: paper PMC7151106 (Pharmaceutics, 2020)
